We go through 21 compounds from patent publication US20250313563A1, “GLYCOGEN SYNTHASE KINASE 3 INHIBITORS AND USES THEREOF” (The Broad Institute, Inc., priority 2022, published 2025).

Test [1] addresses GSK3α (GST-full length GSK3α) (Homo sapiens (Human), UniProt P49840). The test is described as follows: GSK3α TR-FRET kinase assay. It is filed as biochemical. The method, boiled down:
(§1)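 In this time-resolved FRET format, kinase reactions contained 200 nM biotinylated, S645-phosphorylated glycogen synthase 631-650 peptide and either isoform-specific ATP (2 μM GSK3b, 4 μM GSK3α) or 1 mM ATP. They were quenched with EDTA after 100 min at ambient temperature. Inhibition curves gave IC50 values.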

In test [2] the target is GSK3b (GST-full length GSK3b) (Homo sapiens (Human), UniProt P49841). The test is described as follows: GSK3b TR-FRET kinase assay. It is filed as biochemical. The method, boiled down:
as §1
On the technique in general: Time-resolved FRET reads energy transfer from a long-lived donor to a nearby acceptor.

The mark [3] stands for this setting: 1 nM GSK3α, 4 μM ATP, 30 minute preincubation, Table 16, read-out: GSK3-A TR-FRET BIOCHEMICAL (TR-FRET).
Setting [4] is: 1 nM GSK3b, 2 μM ATP, 30 minute preincubation, Table 16, read-out: GSK3-B TR-FRET BIOCHEMICAL (TR-FRET).
The mark [5] stands for this setting: 1 nM GSK3α, 4 μM ATP, 30 minute preincubation, Table 16, read-out: GSK3-A TR-FRET BIOCHEMICAL (TR-FRET), IC50.
[6] abbreviates: 1 nM GSK3b, 2 μM ATP, 30 minute preincubation, Table 16, read-out: GSK3-B TR-FRET BIOCHEMICAL (TR-FRET), IC50.
Where [7] appears, read: 1 nM GSK3α, 4 μM ATP, 30 minute preincubation, geometric mean, read-out: GSK3-A TR-FRET BIOCHEMICAL (TR-FRET), GMean, IC50.
[8] abbreviates: 1 nM GSK3b, 2 μM ATP, 30 minute preincubation, geometric mean, read-out: GSK3-B TR-FRET BIOCHEMICAL (TR-FRET), GMean, IC50.
Where [9] appears, read: read-out: GSK3-A (TR-FRET 1 mM ATP), GMean, IC50, 1 mM ATP, geometric mean.
Setting [10] is: read-out: GSK3-B (TR-FRET 1 mM ATP), GMean, IC50, 1 mM ATP, geometric mean.
Where [11] appears, read: 1 nM GSK3α, 4 μM ATP, 30 minute preincubation, read-out: GSK3-A TR-FRET BIOCHEMICAL (TR-FRET), IC50.
Where [12] appears, read: 1 nM GSK3b, 2 μM ATP, 30 minute preincubation, read-out: GSK3-B TR-FRET BIOCHEMICAL (TR-FRET), IC50.

Molecules are shown by their SMILES. Where two headings read alike, the source gives them in different places.

GSK3α (GST-full length GSK3α), sequence (P49840 whole entry, canonical isoform): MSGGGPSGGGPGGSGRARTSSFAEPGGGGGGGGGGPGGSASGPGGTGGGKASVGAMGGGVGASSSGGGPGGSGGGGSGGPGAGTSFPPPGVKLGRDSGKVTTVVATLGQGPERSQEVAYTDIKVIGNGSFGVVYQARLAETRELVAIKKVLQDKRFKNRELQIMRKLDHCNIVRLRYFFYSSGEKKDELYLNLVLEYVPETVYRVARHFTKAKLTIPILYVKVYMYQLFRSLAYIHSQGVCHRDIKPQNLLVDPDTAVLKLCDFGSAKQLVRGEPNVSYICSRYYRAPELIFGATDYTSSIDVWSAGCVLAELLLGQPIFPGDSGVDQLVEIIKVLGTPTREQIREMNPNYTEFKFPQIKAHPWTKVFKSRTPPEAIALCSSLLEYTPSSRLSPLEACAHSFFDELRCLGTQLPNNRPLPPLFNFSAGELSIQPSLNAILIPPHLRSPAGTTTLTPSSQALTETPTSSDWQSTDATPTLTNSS
GSK3b (GST-full length GSK3b), sequence (P49841 whole entry): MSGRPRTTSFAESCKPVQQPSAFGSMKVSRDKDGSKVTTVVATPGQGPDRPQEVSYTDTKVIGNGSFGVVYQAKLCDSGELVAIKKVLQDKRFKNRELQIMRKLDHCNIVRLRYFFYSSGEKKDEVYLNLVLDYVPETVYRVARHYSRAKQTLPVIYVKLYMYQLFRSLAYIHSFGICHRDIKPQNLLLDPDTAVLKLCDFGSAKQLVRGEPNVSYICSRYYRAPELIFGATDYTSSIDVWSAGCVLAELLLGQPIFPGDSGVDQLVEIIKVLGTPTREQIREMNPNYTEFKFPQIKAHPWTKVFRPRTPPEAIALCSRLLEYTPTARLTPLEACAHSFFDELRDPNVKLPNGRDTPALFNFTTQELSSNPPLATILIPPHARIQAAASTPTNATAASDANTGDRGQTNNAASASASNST

Consider `CC1(C)CC(=O)C2=C(C1)Nc1n[nH]cc1C21CN(CC(F)(F)F)C1` [Compound 912074], for which the results for the IC50 in test [1] (setting [3]) and in test [2] (setting [4]) were not above 100 nM and 100 to 1000 nM, respectively.

Regarding `CCC1(c2cccc(N3CC(C)C(C)C3)c2)C2=C(CC(C)(C)CC2=O)Nc2n[nH]cc21` (stereo not shown) [Compound 924504], the IC50 in test [1] (setting [5]) and in test [2] (setting [6]) was 100 to 1000 nM each time.

Consider `CCC1(c2cccc(-c3cncn3C(C)C)c2)C2=C(Nc3n[nH]cc31)C(F)C(C)(C)CC2=O` (stereo not shown) [Compound 963155], for which the IC50 in test [1] (setting [3]) and in test [2] (setting [4]) was not above 100 nM throughout.

For `CC1(C)CC(=O)C2=C(C1)Nc1n[nH]cc1C21COC1` [Compound 889569], the IC50 in test [1] (setting [3]) and in test [2] (setting [4]) was 100 to 1000 nM each time.

As for `CCC1(c2cccc(-c3cnn(C)c3)c2)C2=C(CC(C)(C)CC2=O)Nc2n[nH]c(C(F)(F)F)c21` (stereo not shown) [Compound 801445], the IC50 in test [1] (setting [7]) and in test [2] (setting [8]) was not above 100 nM each time.

As to `CC[C@@]1(c2cccc(-c3ccncc3CO)c2)C2=C(CC(C)(C)CC2=O)Nc2n[nH]cc21` [Compound 945469], the IC50 in test [1] (setting [3]) and in test [2] (setting [4]) was not above 100 nM in each case.

Consider `CCC1(c2cccc(-c3cnnc(C)c3)c2)C2=C(CC(C)(C)CC2=O)Nc2n[nH]cc21` (stereo not shown) [Compound 926844], for which the figures for the IC50 in test [1] (setting [5]) and in test [2] (setting [6]) were not above 100 nM and 100 to 1000 nM, respectively.

As for `CC[C@@]1(c2cccc(-c3c(F)cncc3OC)c2)C2=C(CC(C)(C)CC2=O)Nc2n[nH]cc21` [Compound 947511], the IC50 in test [1] (setting [3]), in test [1] (setting [9]), in test [2] (setting [4]) and in test [2] (setting [10]) was not above 100 nM in each case.

On to `CC[C@]1(c2cccc(C(F)(F)F)c2)C2=C(CCNC2=O)Nc2n[nH]cc21` [Compound 912668], for which the IC50 in test [1] (setting [11]) and in test [2] (setting [12]) was more than 5000 nM each time.

Turning to `CC1CC(C(=O)N2CC3(C2)CC2(CO3)C3=C(CC(C)(C)CC3=O)Nc3n[nH]cc32)C1` (stereo not shown) [Compound 947733], the IC50 in test [1] (setting [11]) and in test [2] (setting [12]) was not above 100 nM each time.

Regarding `COc1cncc(F)c1-c1cccc([C@@]2(C)C3=C(CC(C)(C)CC3=O)Nc3n[nH]c(CC(C)(C)C)c32)c1` [Compound 108956], the IC50 is more than 5000 nM in test [1] (setting [9]) and 1000 to 5000 nM in test [2] (setting [10]).

For `CCC1(c2cccc(-c3ccnc(C)c3)c2)C2=C(CC(C)(C)N(C)C2=O)Nc2n[nH]cc21` (stereo not shown) [Compound 949009], the IC50 in test [1] (setting [7]) and in test [2] (setting [8]) was more than 5000 nM in each case.

With `CC[C@]1(c2cccc(C(F)(F)F)c2)C2=C(CCN(C(C)C)C2=O)Nc2n[nH]cc21` [Compound 857362], the IC50 in test [1] (setting [11]) and in test [2] (setting [12]) was more than 5000 nM throughout.

With `CCC1(c2cccc(-c3ccnc(C)c3)c2)C2=C(Nc3n[nH]cc31)C(F)C(C)(C)CC2=O` (stereo not shown) [Compound 946103], the IC50 in test [1] (setting [3]) is 100 to 1000 nM; in test [1] (setting [9]), more than 5000 nM; in test [2] (setting [4]), 1000 to 5000 nM; in test [2] (setting [10]) it was more than 5000 nM.

With `CC1(C)CC(=O)C2=C(C1)Nc1n[nH]cc1C21CN(C2CCCCC2)C1` [Compound 929446], the IC50 in test [1] (setting [5]) and in test [2] (setting [6]) was 1000 to 5000 nM in each case.

`Cn1nccc1-c1cccc2c1CCC[C@@]21C2=C(CC(C)(C)CC2=O)Nc2n[nH]cc21` [Compound 945552]: the IC50 in test [1] (setting [3]) is 100 to 1000 nM; in test [2] (setting [4]), more than 5000 nM.

Take `CCC1(c2cccc(C3CCC3)c2)C2=C(CC(C)(C)CC2=O)Nc2n[nH]cc21` (stereo not shown) [Compound 949514]: the figures for the IC50 in test [1] (setting [5]) and in test [2] (setting [6]) were 1000 to 5000 nM and more than 5000 nM, respectively.

Regarding `CC1(C)CC(=O)C2=C(C1)Nc1n[nH]cc1[C@@]21CCOC1` [Compound 877314], the IC50 lay in the range of 100 to 1000 nM in test [1] (setting [5]) and 1000 to 5000 nM in test [2] (setting [6]).

On to `CCC1(c2cccc(C3CC3)c2)C2=C(CC(C)(C)CC2=O)Nc2n[nH]cc21` (stereo not shown) [Compound 801316], for which the IC50 in test [1] (setting [7]) and in test [2] (setting [8]) was not above 100 nM in each case.

Consider `CCC1(c2cccc(C)c2)C2=C(CC(C)(C)CC2=O)Nc2n[nH]cc21` (stereo not shown) [Compound 785738], for which the figures for the IC50 in test [1] (setting [7]) and in test [2] (setting [8]) were not above 100 nM and 100 to 1000 nM, respectively.

Consider `C[C@H]1CC[C@]2(C1)C1=C(CC(C)(C)CC1=O)Nc1n[nH]cc12` [Compound 883840], for which the IC50 in test [1] (setting [3]) and in test [2] (setting [4]) was 100 to 1000 nM each time.
